Legend:
PI3Kδ = PI3Kδ (Homo sapiens (Human), UniProt O00329); test: PI3K enzyme assay, [γ-33P]ATP filter plate (Example A2); type: biochemical; conditions: Assay A2 (filter plate, 1000 μM ATP)
Protocol: Example A2: PI3K Enzyme Assay
Lipid kinase substrate, phosphoinositol-4,5-bisphosphate (PIP2), are purchased from Echelon Biosciences (Salt Lake City, Utah). PI3K isoforms α, β, δ and γ are purchased from Millipore (Bedford, Mass.). ATP, MgCl2, DTT, EDTA, MOPS and CHAPS are purchased from Sigma-Aldrich (St. Louis, Mo.).
The kinase reaction are conducted in clear-bottom 96-well plate from Thermo Fisher Scientific in a final volume of 24 μL. Inhibitors are first diluted serially in DMSO and added to the plate wells before the addition of other reaction components. The final concentration of DMSO in the assay is 0.5%. The PI3K assays are carried out at room temperature in 20 mM MOPS, pH 6.7, 10 mM MgCl2, 5 mM DTT and CHAPS 0.03%. The reaction mixture is prepared containing 50 μM PIP2, kinase and varying concentration of inhibitors. Reactions are initiated by the addition of ATP containing 2.2 μCi [γ-^33P]ATP to a final concentration of 1000 μM. The final concentration of PI3K isoforms α, β, δ and γ in the assay were 1.3, 9.4, 2.9 and 10.8 nM, respectively. Reactions are incubated for 180 minutes and terminated by the addition of 100 μL of 1 M potassium phosphate pH 8.0, 30 mM EDTA quench buffer. A 100 μL aliquot of the reaction solution are then transferred to 96-well Millipore MultiScreen IP […] PVDF filter plate (The filter plate is prewetted with 200 μL 100% ethanol, distilled water, and 1 M potassium phosphate pH 8.0, respectively). The filter plate is aspirated on a Millipore Manifold under vacuum and washed with 18×200 μL wash buffer containing 1 M potassium phosphate pH 8.0 and 1 mM ATP. After drying by aspiration and blotting, the plate is air dried in an incubator at 37° C. overnight. Packard TopCount adapter (Millipore) is then attached to the plate followed with addition of 120 μL Microscint 20 scintillation cocktail (Perkin Elmer) in each well. After the plate sealing, the radioactivity of the product is determined by scintillation counting on Topcount (Perkin-Elmer). IC50 determination is performed by fitting the curve of percent control activity versus the log of the inhibitor concentration using the GraphPad Prism 3.0 software.

[1] = test system: SUDHL-6 cell line (diffuse large B cell lymphoma); test: SUDHL-6 cell proliferation assay (Example B3); type: cell-based; conditions: SUDHL-6 cells, 3 days, Cell Titer-GLO
Summary of the method: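 Cells in RPMI/10% FBS, 5000 per well, exposed to a concentration range of test compound for 3 days. Viability read as ATP content by CellTiter-Glo luminescence after 10 min at room temperature; IC50 derived from the luminescence.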

PI3Kδ, sequence (O00329 whole entry): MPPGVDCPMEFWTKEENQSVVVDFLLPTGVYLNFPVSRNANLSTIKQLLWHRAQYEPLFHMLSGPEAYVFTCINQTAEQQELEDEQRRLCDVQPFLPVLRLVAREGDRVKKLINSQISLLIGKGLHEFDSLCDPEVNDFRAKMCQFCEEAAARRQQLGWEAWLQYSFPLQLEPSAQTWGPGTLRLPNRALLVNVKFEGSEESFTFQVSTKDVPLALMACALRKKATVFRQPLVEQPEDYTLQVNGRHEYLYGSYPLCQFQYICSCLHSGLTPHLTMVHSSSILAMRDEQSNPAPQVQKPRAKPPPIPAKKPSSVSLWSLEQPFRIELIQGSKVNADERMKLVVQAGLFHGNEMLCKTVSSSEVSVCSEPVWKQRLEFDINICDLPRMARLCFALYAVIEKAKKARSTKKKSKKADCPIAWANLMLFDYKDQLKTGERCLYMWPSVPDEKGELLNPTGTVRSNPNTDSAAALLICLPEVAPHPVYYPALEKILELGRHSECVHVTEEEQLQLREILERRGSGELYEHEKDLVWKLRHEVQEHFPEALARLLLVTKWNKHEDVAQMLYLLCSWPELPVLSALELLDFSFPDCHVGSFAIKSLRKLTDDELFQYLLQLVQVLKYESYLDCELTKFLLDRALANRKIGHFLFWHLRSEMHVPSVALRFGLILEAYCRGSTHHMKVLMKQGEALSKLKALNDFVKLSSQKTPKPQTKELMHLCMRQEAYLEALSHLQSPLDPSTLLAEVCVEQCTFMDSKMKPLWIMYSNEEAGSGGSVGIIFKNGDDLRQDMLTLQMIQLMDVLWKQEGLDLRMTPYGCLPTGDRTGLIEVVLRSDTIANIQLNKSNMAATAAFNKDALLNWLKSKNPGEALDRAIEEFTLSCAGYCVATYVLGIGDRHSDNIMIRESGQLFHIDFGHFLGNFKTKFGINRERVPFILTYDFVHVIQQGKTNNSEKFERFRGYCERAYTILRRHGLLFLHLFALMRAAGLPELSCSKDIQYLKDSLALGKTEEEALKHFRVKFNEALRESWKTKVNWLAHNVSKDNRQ
PI3Kδ, sequence (P27986 whole entry partner): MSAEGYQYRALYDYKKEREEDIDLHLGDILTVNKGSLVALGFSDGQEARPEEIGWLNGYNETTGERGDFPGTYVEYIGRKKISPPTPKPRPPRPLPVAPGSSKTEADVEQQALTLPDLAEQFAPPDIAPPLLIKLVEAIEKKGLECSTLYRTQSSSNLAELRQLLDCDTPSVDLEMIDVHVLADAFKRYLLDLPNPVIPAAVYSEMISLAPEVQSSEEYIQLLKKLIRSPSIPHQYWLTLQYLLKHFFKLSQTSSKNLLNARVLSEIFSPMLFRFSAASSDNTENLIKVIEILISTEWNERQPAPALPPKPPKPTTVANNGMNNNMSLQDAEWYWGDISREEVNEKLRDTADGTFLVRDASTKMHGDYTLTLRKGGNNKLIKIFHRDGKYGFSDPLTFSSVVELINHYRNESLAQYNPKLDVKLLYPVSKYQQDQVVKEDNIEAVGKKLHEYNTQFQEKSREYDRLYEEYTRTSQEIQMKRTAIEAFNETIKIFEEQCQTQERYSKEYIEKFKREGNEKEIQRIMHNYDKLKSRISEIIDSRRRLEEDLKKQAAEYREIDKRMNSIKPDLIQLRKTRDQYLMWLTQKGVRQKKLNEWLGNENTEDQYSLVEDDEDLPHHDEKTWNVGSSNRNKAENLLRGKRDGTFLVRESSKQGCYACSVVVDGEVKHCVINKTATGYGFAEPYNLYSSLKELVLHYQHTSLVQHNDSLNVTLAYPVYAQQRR

IC50 (PI3Kδ) [nM]	IC50 [1] [nM]	IC50 ([1]; Homo sapiens, SU-DHL-6, 72 h) [nM]	Compound
≤ 100	≤ 500		Cc1nn(C(C)c2cc(Cl)c(F)c3c2OC(C)CN(C2CN(C(=O)OC(C)(C)C)C2)C3)c2ncnc(N)c12 (single isomer, unassigned) [Example 27, tert-Butyl 3-[9-[1-(4-amino-3-methyl-1H-pyrazolo[3,4-d]pyrimidin-1-yl)ethyl]-7-chloro-6-fluoro-2-methyl-2,3-dihydro-1,4-benzoxazepin-4(5H)-yl]azetidine-1-carboxylate]
≤ 100			COC(=O)N1CC(N2Cc3c(F)c(Cl)cc(C(C)n4nc(C)c5c(N)ncnc54)c3OC(C)C2)C1 (single isomer, unassigned) [Example 79, methyl 3-[9-[1-(4-amino-3-methyl-1H-pyrazolo[3,4-d]pyrimidin-1-yl)ethyl]-7-chloro-6-fluoro-2-methyl-2,3-dihydro-1,4-benzoxazepin-4(5H)-yl]azetidine-1-carboxylate]
≤ 100		≤ 500	Cc1nn(C(C)c2cc(Cl)c(F)c3c2OCCCN(S(C)(=O)=O)C3)c2ncnc(N)c12 (centres unmarked) [Example 45, 1-{1-[8-Chloro-7-fluoro-5-(methylsulfonyl)-3,4,5,6-tetrahydro-2H-1,5-benzoxazocin-10-yl]ethyl}-3-methyl-1H-pyrazolo[3,4-d]pyrimidin-4-amine]
		≤ 500	CCC(=O)N1CC(N2CCOc3c(C(C)n4nc(C)c5c(N)ncnc54)cc(Cl)c(C#N)c3C2)C1 (centres unmarked) [Example 89, 9-[1-(4-amino-3-methyl-1H-pyrazolo[3,4-d]pyrimidin-1-yl)ethyl]-7-chloro-4-(1-propionylazetidin-3-yl)-2,3,4,5-tetrahydro-1,4-benzoxazepine-6-carbonitrile]
		≤ 500	Cc1nn(C(C)c2cc(Cl)c(C#N)c3c2OCCN(C2CN(S(C)(=O)=O)C2)C3)c2ncnc(N)c12 (centres unmarked) [Example 90, 9-[1-(4-amino-3-methyl-1H-pyrazolo[3,4-d]pyrimidin-1-yl)ethyl]-7-chloro-4-[1-(methylsulfonyl)azetidin-3-yl]-2,3,4,5-tetrahydro-1,4-benzoxazepine-6-carbonitrile]
		≤ 500	Cc1nn(C(C)c2cc(Cl)c(C#N)c3c2OCCN(C2CN(C(=O)NC(C)C)C2)C3)c2ncnc(N)c12 (centres unmarked) [Example 91, 3-[9-[1-(4-amino-3-methyl-1H-pyrazolo[3,4-d]pyrimidin-1-yl)ethyl]-7-chloro-6-cyano-2,3-dihydro-1,4-benzoxazepin-4(5H)-yl]-N-isopropylazetidine-1-carboxamide]
		≤ 500	CCOC(=O)N1CC(N2CCOc3c(C(C)n4nc(C)c5c(N)ncnc54)cc(Cl)c(C#N)c3C2)C1 (centres unmarked) [Example 92, ethyl 3-[9-[1-(4-amino-3-methyl-1H-pyrazolo[3,4-d]pyrimidin-1-yl)ethyl]-7-chloro-6-cyano-2,3-dihydro-1,4-benzoxazepin-4(5H)-yl]azetidine-1-carboxylate]
≤ 100		≤ 500	CCC(=O)N1CC(N2Cc3c(C#N)c(Cl)cc(C(C)n4nc(C)c5c(N)ncnc54)c3OC(C)C2)C1 (centres unmarked) [Example 96, 9-[1-(4-amino-3-methyl-1H-pyrazolo[3,4-d]pyrimidin-1-yl)ethyl]-7-chloro-2-methyl-4-(1-propionylazetidin-3-yl)-2,3,4,5-tetrahydro-1,4-benzoxazepine-6-carbonitrile]

— patent US10259818B2, “Bicyclic azaheterocyclobenzylamines as PI3K inhibitors” (Incyte Corporation, priority 2012, dated 2019)
